Reference: patent US20200399250A1, “Pyrimidine Derivatives as Tropomyosin Receptor Kinase A (TRKA) Inhibitors” (BIOMED X GMBH, priority 2017, published 2020)
“Also recorded” adds a separate entry of the source.

Columns and labels:
TrkA [1] = biological target: T1, TrkA (Homo sapiens, UniProt P04629); assay: KINOMEscan primary screen against TrkA; assay type: binding; settings: % of control
Description: (§1) Compounds were initially tested in a primary screen against TrkA (at 10 and 100 nM) and AurA (at 100 nM and 1 μM) using the KINOMEscan technology from DiscoverX Corporation, Fremont, Calif., USA (https://www.discoverx.com/services/drug-discovery-development-services/kinase-profiling/kinomescan).
Results were reported as % of control (% Ctrl.=(test compound signal−positive control signal)/(DMSO signal−positive control signal). KINOMEscan is an active site-directed competition binding assay that quantitatively measures the ability of a compound to compete with an immobilized, active-site directed ligand.

AurA [2] = biological target: T2, AurA (Homo sapiens, UniProt O14965); assay: KINOMEscan primary screen against AurA; assay type: binding; settings: % of control
T2 sequence (O14965 1-403): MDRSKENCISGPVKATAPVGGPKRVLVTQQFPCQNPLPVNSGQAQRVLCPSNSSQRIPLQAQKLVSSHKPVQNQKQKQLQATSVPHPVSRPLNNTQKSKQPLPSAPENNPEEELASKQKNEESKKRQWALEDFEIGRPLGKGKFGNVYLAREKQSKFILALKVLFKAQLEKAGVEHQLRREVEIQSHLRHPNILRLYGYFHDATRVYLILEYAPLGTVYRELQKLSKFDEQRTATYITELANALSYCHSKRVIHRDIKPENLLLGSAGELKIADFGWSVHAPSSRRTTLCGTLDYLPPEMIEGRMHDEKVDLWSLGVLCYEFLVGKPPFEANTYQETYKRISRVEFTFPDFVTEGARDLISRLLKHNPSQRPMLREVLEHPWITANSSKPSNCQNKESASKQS
Description: as §1

TrkA [3] = biological target: T1, TrkA; assay: KdELECT Kd measurement (KINOMEscan), TrkA; assay type: binding
Description: (§2) Kd measurements were done via the KdELECT product service from DiscoverX Corporation (Freemont, Calif., USA) which also employs the KINOMEscan technology. Here, inhibitor binding constants (Kd values) are calculated from duplicate 11-point dose-response curves.

TrkA [4] = assay: KdELECT Kd measurement (KINOMEscan), TrkA; assay type: binding; settings: TrkA pKd versus AurA pKd
Description: as §2

AurA [5] = biological target: T2, AurA; assay: KdELECT Kd measurement (KINOMEscan), AurA; assay type: binding
Description: as §2

panel of 97 kinases = assay: Selectivity profiling, scanEDGE kinase panel (KINOMEscan); assay type: binding; settings: 100 nM, cut-off <35% ctrl
Description: Selectivity profiling was done over a panel of 97 kinases at 100 nM concentration (scanEDGE assay panel from Discover X, which also uses the KINOMEscan technology, whereat KIT(D816V) and KIT (V559D, T6701) were replaced by TrkB and TrkC). […] The employed profiling panel consisted of the following kinases: ABL1(T3151)-phosphorylated, ABL1-nonphosphorylated, ABL1-phosphorylated, ACVR1B, ADCK3, AKT1, AKT2, ALK, AURKA, AURKB, AXL, BMPR2, BRAF, BRAF (V600E), BTK, CDK11, CDK2, CDK3, CDK7, CDK9, CHEK1, CSF1R, CSNK1D, CSNK1G2, DCAMKL1, DYRK1B, EGFR, EGFR (L858R), EPHA2, ERBB2, ERBB4, ERK1, FAK, FGFR2, FGFR3, FLT3, GSK3B, IGF1R, IKK-alpha, IKK-beta, INSR, JAK2 (JH1domain-catalytic), JAK3 (JH1domain-catalytic), JNK1, JNK2, JNK3, KIT, LKB1, MAP3K4, MAPKAPK2, MARK3, MEK1, MEK2, MET, MKNK1, MKNK2, MLK1, p38-alpha, p38-beta, PAK1, PAK2, PAK4, PCTK1, PDGFRA, PDGFRB, PDPK1, PIK3C2B, PIK3CA, PIK3CG, PIM1, PIM2, PIM3, PKAC-alpha, PLK1, PLK3, PLK4, PRKCE, RAF1, RET, RIOK2, ROCK2, RSK2 (Kin. Dom. 1-N-terminal), SNARK, SRC, SRPK3, TGFBR1, TIE2, TRKA, TRKB, TRKC, TSSK1B, TYK2 (JH1domain-catalytic), ULK2, VEGFR2, YANK3, ZAP70

[6] = biological target: full-length human TrkA receptor (Homo sapiens, UniProt P04629); assay: PathHunter cellular functional assay, antagonism of β-NGF; assay type: cell-based; settings: antagonism at EC80 (0.03 μg/ml) of β-NGF; read-out: Cellular assay [RC50]
Source text: The two compounds a1 and b7 were additionally tested in a functional assay using the PathHunter® technology (DiscoverX Corporation, Freemont, Calif., USA; https://www.discoverx.com/technologies-platforms/enzyme-fragment-complementation-technoloqy/cell-based-efc-assays/protein-protein-interactions/kinases-cell-based-(rtk-ctk)). In this assay, the full-length human TrkA receptor (i.e. including ligand-binding and kinase domains) is expressed as a C-terminal (intracellular) fusion with a small peptide epitope, called Prolink™ (PK). Furthermore, a SH2 domain containing protein (i.e. Shc1) is co-expressed with a larger Enzyme Acceptor (EA) fragment. Activation of the TrkA receptor by adding the agonist ligand (β-NGF), leads to the auto-phosphorylation of the kinase and subsequent binding of the Shc1-EA protein. That recruitment results in an active B-galactosidase enzyme that is detected by addition of a chemiluminescent substrate.
Compounds were tested for antagonism using EC80 concentration (i.e. 0.03 μg/ml) of β-NGF. Data was normalized to the maximal and minimal response observed in the presence of EC80 agonist ligand (3-NGF) and vehicle (DMSO, final concentration 1%), respectively.

[7] = duplicate 11-point dose-response curves

T1 sequence (P04629 33-796): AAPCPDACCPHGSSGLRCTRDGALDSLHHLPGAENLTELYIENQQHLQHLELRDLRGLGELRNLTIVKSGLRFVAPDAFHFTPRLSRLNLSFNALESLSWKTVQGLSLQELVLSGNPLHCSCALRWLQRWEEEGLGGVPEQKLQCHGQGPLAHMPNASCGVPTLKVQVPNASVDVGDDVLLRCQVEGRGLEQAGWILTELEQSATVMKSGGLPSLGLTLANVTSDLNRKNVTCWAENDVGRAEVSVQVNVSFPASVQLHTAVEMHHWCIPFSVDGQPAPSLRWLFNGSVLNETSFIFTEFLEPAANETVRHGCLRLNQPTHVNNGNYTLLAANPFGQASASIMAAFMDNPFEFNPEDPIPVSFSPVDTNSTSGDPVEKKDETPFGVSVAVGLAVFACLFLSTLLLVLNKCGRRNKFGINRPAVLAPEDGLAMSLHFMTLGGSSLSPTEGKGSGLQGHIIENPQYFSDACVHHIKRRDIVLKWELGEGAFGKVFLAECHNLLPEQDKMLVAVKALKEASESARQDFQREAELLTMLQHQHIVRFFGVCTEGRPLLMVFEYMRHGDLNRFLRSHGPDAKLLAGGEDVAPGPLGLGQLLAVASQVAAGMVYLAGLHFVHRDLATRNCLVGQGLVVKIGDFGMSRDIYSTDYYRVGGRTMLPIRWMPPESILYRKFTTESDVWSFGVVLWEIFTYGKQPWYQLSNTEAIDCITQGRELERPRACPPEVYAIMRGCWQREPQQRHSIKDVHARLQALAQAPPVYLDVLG
Chain of full-length human TrkA receptor (P04629 33-796): as above
Chain of full-length human TrkA receptor (P01138 122-241 partner): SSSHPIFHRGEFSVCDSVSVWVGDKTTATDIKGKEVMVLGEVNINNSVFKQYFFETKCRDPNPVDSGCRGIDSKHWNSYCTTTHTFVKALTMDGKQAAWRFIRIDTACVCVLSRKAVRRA

- % Ctrl. TrkA @10 nM (TrkA [1]; 10 nM compound): 9.3 % Ctrl.
- % Ctrl. TrkA @100 nM (TrkA [1]; 100 nM compound): 0.5 % Ctrl.
- % Ctrl. AurA @100 nM (AurA [2]; 100 nM compound): 15 % Ctrl.
- % Ctrl. AurA @1 μM (AurA [2]; 1 μM compound): 0.85 % Ctrl.
- TrkA [pKd] (TrkA [3]): 9.0
- Kd (TrkA [3]; [7]): 1.1 nM
- ΔpKd (TrkA [4]): 1.4
- AurA [pKd] (AurA [5]): 7.6
- Kd (AurA [5]; [7]): 28 nM
- # Hits (panel of 97 kinases; N = 92 non-mutant kinases): 18
- Selectivity Score (panel of 97 kinases; inhibited kinases/tested kinases): 0.196
- IC50 [6]: 23 nM
Structure (SMILES): Cc1cc(Nc2cc(N3CCN(C)CC3)nc(SCc3ccc(F)cc3)n2)n[nH]1 [b7, 2-{[(4-fluorophenyl)methyl]sulfanyl}-N-(5-methyl-1H-pyrazol-3-yl)-6-(4-methylpiperazin-1-yl)pyrimidin-4-amine]
- List of inhibited kinases (panel of 97 kinases): TrkA, TrkB, TrkC, ABL1, ALK,; also recorded: AurA, FLT3, FMS, JAK2, JAK3,; also recorded: KDR, KIT, NuaK2, PDGFRb, PLK4,; also recorded: RET, SRC, TYK2
